Results as given in ChEMBL document CHEMBL5113494, “Novel difluoromethyl-containing 1-((4-methoxy-3-(piperazin-1-yl)phenyl)sulfonyl)-1H-indole scaffold as potent 5-HT6R antagonists: Design, synthesis, biological evaluation, and early in vivo cognition-enhancing studies” (Bioorg Med Chem, 2022).

Columns and labels:
physchem [1] = conditions: octanol/water
physchem [2] = assay: physchem
in vivo [3] = conditions: Sprague-Dawley, rat, iv, 2 mg/kg
in vivo [4] = conditions: Sprague-Dawley, rat, po, 5 mg/kg
in vivo [5] = conditions: Sprague-Dawley, rat, po, 5 mg/kg; remark: listed apart in the source
in vivo [6] = conditions: Sprague-Dawley, rat, po, 5 mg/kg; remark: listed apart in the source
[7] = Sprague-Dawley, rat, in vivo, iv, 2 mg/kg, 24 h
in vivo [8] = conditions: Sprague-Dawley, rat, po, 5 mg/kg; remark: listed apart in the source

Row | SMILES | logP (physchem [1]) | pKa (physchem [2]) | Cmax at 24 h (in vivo [3]) [ng/mL] | half-life at 24 h (in vivo [4]) [h] | AUC(0-t) at 24 h (in vivo [5]) [ng·h/mL] | Cmax at 24 h (in vivo [6]) [ng/mL] | AUCt [7] [ng·h/mL] | bioavailability at 24 h (in vivo [8]) [%]
1 | COc1ccc(S(=O)(=O)n2ccc3ccc(Br)cc32)cc1N1CCNCC1 | 3.73 | 8.68 | 133 | 2.1 | 32 | 10 | 153 | 9.35
2 | COc1ccc(S(=O)(=O)n2cc(C)c3cc(F)ccc32)cc1N1CCNCC1 | 3.22 |  |  |  |  |  |  | 
3 | COc1ccc(S(=O)(=O)n2cc(C(F)F)c3cc(Cl)ccc32)cc1N1CCNCC1 | 3.85 | 8.66 |  |  |  |  |  | 

More lines, main results first:

Row | logP (physchem [1]) | pKa (physchem [2]) | SMILES | Cmax at 24 h (in vivo [3]) [ng/mL] | half-life at 24 h (in vivo [4]) [h] | AUC(0-t) at 24 h (in vivo [5]) [ng·h/mL] | Cmax at 24 h (in vivo [6]) [ng/mL] | AUCt [7] [ng·h/mL] | bioavailability at 24 h (in vivo [8]) [%]
4 | 3.39 | 8.62 | COc1ccc(S(=O)(=O)n2cc(C(F)F)c3ccc(F)cc32)cc1N1CCNCC1 | 77 | 3.4 | 102 | 24 | 290 | 14.4
5 | 3.3 | 8.78 | COc1ccc(S(=O)(=O)n2cc(C)c3ccc(F)cc32)cc1N1CCNCC1 |  |  |  |  |  | 
6 | 3.31 | 8.78 | COc1ccc(S(=O)(=O)n2cc(C(F)F)c3cc(F)ccc32)cc1N1CCNCC1 |  |  |  |  |  | 
